The results in this text go back to patent US10081662B2, “Modified relaxin B chain peptides” (The Florey Institute of Neuroscience and Mental Health, priority 2014, dated 2018).

Assay [1] has as its target T1, fusion protein comprising the extracellular domain of RXFP1 and the transmembrane domain of CD8 (7BP cells) (Homo sapiens, UniProt Q9HBX9).
T1 construct: the extracellular domain of RXFP1 and the transmembrane domain of CD8; expressed in transfected cells
T1 sequence (Q9HBX9 1-409 limits assumed): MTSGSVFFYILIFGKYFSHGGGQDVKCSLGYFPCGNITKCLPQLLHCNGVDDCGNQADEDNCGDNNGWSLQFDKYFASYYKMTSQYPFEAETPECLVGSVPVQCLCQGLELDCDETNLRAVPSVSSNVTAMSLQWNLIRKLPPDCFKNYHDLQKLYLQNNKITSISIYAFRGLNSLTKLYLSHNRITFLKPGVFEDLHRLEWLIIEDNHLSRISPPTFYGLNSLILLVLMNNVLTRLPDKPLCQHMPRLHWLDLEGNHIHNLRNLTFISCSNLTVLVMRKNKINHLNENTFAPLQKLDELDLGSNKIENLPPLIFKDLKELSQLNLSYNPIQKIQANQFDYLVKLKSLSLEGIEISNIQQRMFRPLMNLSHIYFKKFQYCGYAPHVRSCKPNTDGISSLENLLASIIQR
Nature of the assay: Eu-labelled H2 relaxin competition binding to 7BP cells. Conditions: 7BP cells.

Assay [2] relates to mouse model of isoproterenol (ISO) induced cardiac fibrosis. As to the kind of experiment: Mouse model of isoproterenol-induced cardiomyopathy (cardiac fibrosis). The class given is in vivo. Conditions: 129SV mice, 14 days, s.c. minipump; relative to isoproterenol treatment. The source says: Seven to eight-week old male 129SV mice (which are sensitive to tissue injury and fibrosis) and age-matched female Balb/c mice (which are sensitive to changes in airway hyperresponsiveness) were used for the induction of isoproterenol-induced cardiomyopathy and ovalbumin-induced chronic allergic airways disease, respectively. 16 five week-old male C57BL/6 mice were used in the induction of prostate cancer growth. All animals were obtained from Monash Animal Services (Monash University, Clayton, Victoria, Australia) and housed under standard conditions (maintained on an 12 h light-12 h dark lighting cycle with free access to food and water) in the Department of Pharmacology Animal Room at Monash University.
The mid zone of the male mouse heart and largest lung lobe from female Balb/c mice were fixed in 10% neutral buffered formalin for 24-48 h before being processed and embedded routinely in paraffin wax. Representative sections of tissue, 3-5 um each, were taken and stained with either picrosirius red (Samuel et al. 2011 Lab Invest 91, 675-690) for the detection of interstitial collagen or Masson's trichrome (Royce et al, 2009, Endocrinology 150, 2692-2699) for the detection of subepithelial basement membrane collagen deposition).
Changes in picrosirius-red stained interstitial collagen or epithelial thickness and subepithelial collagen (fibrosis) around the airway lumen from Masson's trichrome-stained sections; which were all captured (at ×20 magnification) using a SPOT digital camera (Q Imaging, Burnaby, BC, Canada) and analysed with Image J 1.3 software (National Institutes of Health, Bethesda, Md.). Four to five fields per mid zone of the heart or 4-5 airways (of 150-350 μm in diameter) per mouse were assessed. Epithelial thickness and subepithelial collagen regions were traced with a digital pen and the thickness of each region calculated by the imaging software. Results were expressed as mean thickness ([…]) of the 4-5 airways sampled.
The apical region of the heart or second largest lung lobe from each mouse was treated as described previously (Samuel C S, et at., 2003, FASEB J 17, 121-123; Royce et at. 2009, Endocrinology 150, 2692-2699) for the determination of hydroxyproline content. Hydroxyproline values were estimated based on a standard curve constructed with serial dilutions of a 0.1 mg/mL stock of trans-4-hydroxyproline-L-proline (Sigma-Aldrich). Hydroxyproline values were then converted to collagen content as detailed previously (Samuel CS, et al. 2004. Endocrinology 145, 4125-4133) and, in turn, divided by the dry weight of each corresponding left ventricular or lung tissue assessed to yield collagen concentration (a measure of fibrosis). […]

A further assay addresses T2, RXFP1 (Homo sapiens, UniProt Q9HBX9).
T2 construct: expressed in transfected cells; host or cells: HEK-293T
T2 sequence (Q9HBX9 1-757): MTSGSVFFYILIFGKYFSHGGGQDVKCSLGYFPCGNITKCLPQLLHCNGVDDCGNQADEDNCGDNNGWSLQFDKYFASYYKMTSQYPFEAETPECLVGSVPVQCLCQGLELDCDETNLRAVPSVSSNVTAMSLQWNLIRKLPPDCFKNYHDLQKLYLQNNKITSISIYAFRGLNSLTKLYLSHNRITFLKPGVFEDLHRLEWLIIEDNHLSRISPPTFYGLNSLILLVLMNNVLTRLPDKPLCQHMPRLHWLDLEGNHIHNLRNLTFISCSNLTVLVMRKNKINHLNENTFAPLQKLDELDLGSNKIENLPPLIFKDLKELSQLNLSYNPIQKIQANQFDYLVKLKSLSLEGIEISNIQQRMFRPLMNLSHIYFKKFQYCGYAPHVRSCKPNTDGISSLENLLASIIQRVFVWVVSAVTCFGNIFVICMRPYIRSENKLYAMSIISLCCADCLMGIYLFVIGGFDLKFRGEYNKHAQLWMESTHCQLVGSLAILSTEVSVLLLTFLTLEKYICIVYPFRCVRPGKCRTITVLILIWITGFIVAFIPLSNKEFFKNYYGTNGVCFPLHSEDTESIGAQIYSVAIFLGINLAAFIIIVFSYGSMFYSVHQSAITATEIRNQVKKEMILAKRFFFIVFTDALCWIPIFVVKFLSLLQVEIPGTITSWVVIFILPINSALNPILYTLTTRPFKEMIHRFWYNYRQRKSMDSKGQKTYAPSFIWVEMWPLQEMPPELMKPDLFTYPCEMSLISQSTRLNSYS
As to the kind of experiment: cAMP reporter gene assay (pCRE β-galactosidase) in HEK-293T cells transfected with RXFP1. Conditions: FIG. 3A, ERK data not shown. Type of assay: cell-based. Background: Reporter assays use an easily measured gene product as a stand-in for the process of interest.

Peptide text beside a SMILES is read from it.

Regarding `CC[C@H](C)[C@H](NC(=O)[C@H](C)NC(=O)[C@@H](NC(=O)[C@H](CCC(N)=O)NC(=O)[C@H](C)NC(=O)[C@H](CCCNC(=N)N)NC(=O)[C@@H](NC(=O)[C@H](CC(C)C)NC(=O)[C@H](CCC(=O)O)NC(=O)[C@H](CCCNC(=N)N)NC(=O)CNC(=O)[C@H](CO)NC(=O)[C@H](CC(C)C)NC(=O)[C@H](CCCCN)NC(=O)[C@@H](NC(=O)[C@@H](N)C(C)C)[C@@H](C)CC)C(C)C)[C@@H](C)CC)C(=O)N[C@@H](CO)C(=O)NCC(=O)N[C@@H](CCSC)C(=O)N[C@@H](CO)C(=O)N[C@H](C(=O)N[C@@H](Cc1c[nH]c2ccccc12)C(=O)N[C@@H](CO)C(=O)N[C@@H](CCCCN)C(=O)N[C@@H](CCCNC(=N)N)C(=O)N[C@@H](CO)C(=O)N[C@@H](CC(C)C)C(N)=O)[C@@H](C)O` [B7-33 C11.23S] (H-VIKLSGRELVRAQIAISGMSTWSKRSL-NH2), the Ki in assay [1] (competition with Eu-labelled H2 relaxin, n ≥ 3, read-out: 7BP Eu-H2 pKi (converted)) is 22.4 nM. For the same compound, the “Binding to 7BP cells (in words)” value in assay [1] (lower affinity than H2 relaxin, FIG. 2B) was “strongly bind to 7BP cells”. Besides, in assay [2], the “Percentage of interstitial collagen in the left ventricle (picrosirius red)” value was “significantly reduced” and the “Total left ventricular collagen concentration (hydroxyproline analysis)” value is on record as “significantly reduced”. The “Activation of cAMP and ERK signalling pathways in HEK-RXFP1 cells (in words)” value at RXFP1 was “full agonist, but with poor potency”.
